# Source: ChEMBL document CHEMBL1201862, “PubChem BioAssay data set” (2004)
# Active and inactive are the calls of the source.
# Target: T1, Heat shock factor protein 1 (Mus musculus, UniProt P38532)
# T1 sequence (P38532 whole entry): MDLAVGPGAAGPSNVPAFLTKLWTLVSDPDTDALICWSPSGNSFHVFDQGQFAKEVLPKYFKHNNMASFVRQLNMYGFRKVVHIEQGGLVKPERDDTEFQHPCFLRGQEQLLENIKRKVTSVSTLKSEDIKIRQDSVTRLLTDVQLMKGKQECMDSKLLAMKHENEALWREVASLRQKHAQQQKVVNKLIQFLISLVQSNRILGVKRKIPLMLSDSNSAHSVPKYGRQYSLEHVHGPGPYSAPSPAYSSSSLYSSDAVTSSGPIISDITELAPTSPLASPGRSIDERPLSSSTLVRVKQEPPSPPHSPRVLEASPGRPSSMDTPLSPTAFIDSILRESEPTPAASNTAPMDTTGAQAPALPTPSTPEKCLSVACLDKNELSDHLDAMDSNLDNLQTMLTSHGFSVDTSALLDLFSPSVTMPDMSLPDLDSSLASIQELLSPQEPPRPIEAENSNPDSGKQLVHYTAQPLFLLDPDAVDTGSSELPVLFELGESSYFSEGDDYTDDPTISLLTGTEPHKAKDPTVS
# Experiment: enhancement of HSF1-driven luciferase signal – cell-based, NIH3T3, luminescence, dose retest, confirmation (AID 435004);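 note: stress induced by proteasome inhibitor MG132 added 30 min after compound; luciferase reporter driven by HSF1 response element in NIH3T3 cells; actives raise luminescence as potentiators of the MG132 stress response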
# Assay type: functional
# Settings: not given
row,SMILES,EC50
1,Cc1ccc(F)cc1NC(=O)N1CCCN(c2ccc(C(F)(F)F)cn2)CC1,> 260 µM (inactive)
2,Cc1cc(C(=O)CN2C(=O)NC3(CCCCC3)C2=O)c(C)n1Cc1ccco1,44 µM (active)

# Target: Cytochrome P450 2C19 (Homo sapiens, UniProt P33261)
# Sequence (P33261 whole entry): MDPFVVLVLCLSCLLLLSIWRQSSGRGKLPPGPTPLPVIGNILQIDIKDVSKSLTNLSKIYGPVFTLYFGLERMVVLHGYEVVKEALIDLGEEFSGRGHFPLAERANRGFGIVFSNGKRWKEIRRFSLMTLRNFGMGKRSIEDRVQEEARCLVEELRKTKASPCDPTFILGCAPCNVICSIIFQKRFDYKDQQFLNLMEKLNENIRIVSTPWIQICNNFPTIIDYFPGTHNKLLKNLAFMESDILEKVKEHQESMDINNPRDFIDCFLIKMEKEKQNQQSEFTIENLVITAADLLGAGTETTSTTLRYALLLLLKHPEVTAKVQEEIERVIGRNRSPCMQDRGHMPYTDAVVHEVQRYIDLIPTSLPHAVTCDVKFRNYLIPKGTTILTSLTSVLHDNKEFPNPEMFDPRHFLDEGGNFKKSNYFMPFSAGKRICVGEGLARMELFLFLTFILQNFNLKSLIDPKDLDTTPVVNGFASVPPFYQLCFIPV
# Experiment: Cytochrome panel assay with activity outcomes. Panel member name: p450-cyp2c19 Compounds with AC50 equal or less than 10 uM are considered active
# Assay type: functional
# Settings: not given
row,SMILES,AC50
1,CN1CCN(C2CC(=O)N(Cc3ccc(N4CCCC4=O)cc3)C2=O)CC1 (stereo not given),inconclusive
2,CC[C@@H]1CC(=O)N(SC[C@H](N)C(=O)O)C1=O,inconclusive

# Same assay, conditions: read-out: AC50
row,SMILES,AC50
1,CC1CCC(C(=O)NC(C(=O)N2CCC(N3CCCCC3)CC2)C(C)C)CC1 (stereo not given),8.91 µM (inconclusive)
2,COc1c(O)ccc2c1CN1CCc3cc4c(cc3[C@@H]1C2)OCO4,3.98 µM (inconclusive)
3,CC(C)(C)c1ccc(COC(=O)CNC(=O)CNC(=O)Cc2ccccc2)cc1,31.6 µM (inconclusive)

# Target: Cytochrome P450 2D6 (Homo sapiens, UniProt P10635);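 note: CYP2D6 member of a cytochrome P450 panel assay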
# Sequence (P10635 whole entry): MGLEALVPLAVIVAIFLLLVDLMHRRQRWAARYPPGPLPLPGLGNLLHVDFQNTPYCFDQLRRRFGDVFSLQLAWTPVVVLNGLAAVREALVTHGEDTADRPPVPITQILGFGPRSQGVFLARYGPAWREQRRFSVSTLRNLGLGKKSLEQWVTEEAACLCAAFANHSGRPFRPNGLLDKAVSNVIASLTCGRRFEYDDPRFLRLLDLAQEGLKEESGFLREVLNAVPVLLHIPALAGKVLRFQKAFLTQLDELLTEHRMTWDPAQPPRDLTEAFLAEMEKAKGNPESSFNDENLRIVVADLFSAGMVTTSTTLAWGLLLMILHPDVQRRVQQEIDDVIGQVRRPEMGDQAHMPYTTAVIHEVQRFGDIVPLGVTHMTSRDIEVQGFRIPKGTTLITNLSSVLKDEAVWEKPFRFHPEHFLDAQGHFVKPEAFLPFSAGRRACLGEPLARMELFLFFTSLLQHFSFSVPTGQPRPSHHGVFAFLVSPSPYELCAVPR
# Settings: not given
row,SMILES,AC50
1,Fc1ccc(Nc2ccnc(-c3ccccc3C(F)(F)F)n2)cc1,39.8 µM (inconclusive)
2,CCOC(=O)C1CCN(Cc2cnc(Oc3ccc(OC)cc3)s2)CC1,22.4 µM (inconclusive)
3,Cc1cc(NC(=O)COc2ccc(Cl)cc2Cl)n(-c2ccccc2)n1,7.08 µM (inconclusive)
4,COc1ncc2nc(CCc3ccccc3)c(=O)n(Cc3cccs3)c2n1,12.6 µM (inconclusive)
5,CN(Cc1ccco1)c1ccnc(-c2cccc(C#N)c2)n1,20 µM (inconclusive)
6,CN1CCN(c2nc(-c3cccc(C#N)c3)nc3ccccc23)CC1,12.6 µM (inconclusive)
7,CCCCN(CC)C(=O)Cc1ccccc1OC,28.2 µM (inconclusive)
8,Cc1noc(C)c1-c1nc(NCCN2CCOCC2)c2ccccc2n1,25.1 µM (inconclusive)
9,c1cc(CNCCCN2CCOCC2)ccn1,15.8 µM (inconclusive)
10,COc1ccc(CNc2nc(-c3cccc(NS(C)(=O)=O)c3)nc3ccccc23)c(OC)c1,12.6 µM (inconclusive)

# Target: T2, Cytochrome P450 1A2 (Homo sapiens, UniProt P05177);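 note: PubChem cytochrome P450 panel assay, CYP1A2 panel member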
# T2 sequence (P05177 whole entry): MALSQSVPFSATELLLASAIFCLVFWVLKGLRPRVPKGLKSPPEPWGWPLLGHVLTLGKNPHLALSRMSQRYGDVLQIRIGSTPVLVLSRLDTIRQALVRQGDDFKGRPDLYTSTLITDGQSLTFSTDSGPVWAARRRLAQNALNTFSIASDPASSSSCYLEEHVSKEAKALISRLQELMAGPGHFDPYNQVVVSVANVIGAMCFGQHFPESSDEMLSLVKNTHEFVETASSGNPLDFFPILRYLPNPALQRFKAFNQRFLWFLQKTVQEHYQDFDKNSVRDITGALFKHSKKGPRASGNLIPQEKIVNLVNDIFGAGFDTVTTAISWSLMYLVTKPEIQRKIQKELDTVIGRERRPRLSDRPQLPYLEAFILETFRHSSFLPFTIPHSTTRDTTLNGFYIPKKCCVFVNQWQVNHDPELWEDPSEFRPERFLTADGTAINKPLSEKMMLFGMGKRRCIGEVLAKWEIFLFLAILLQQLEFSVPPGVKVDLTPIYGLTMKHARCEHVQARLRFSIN
# Settings: not given
row,SMILES,AC50
1,COc1c(O)ccc2c1CN1CCc3cc4c(cc3[C@@H]1C2)OCO4,0.501 µM (inconclusive)
2,COc1ccc2c3c(ccc2c1)N[C@H](C(=O)O)CC3,0.501 µM (inconclusive)
3,CC(C)C(=O)NCCc1nc2ccccc2n1CCCOc1ccc(Cl)cc1,28.2 µM (inconclusive)
4,CSc1nc2n(n1)C(c1cc(Br)ccc1F)C(C(=O)N(C)C)=C(C)N2 (stereo not given),25.1 µM (inconclusive)

# Target: Cytochrome P450 3A4 (Homo sapiens, UniProt P08684);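 note: CYP3A4 tested as one member of a cytochrome P450 panel screen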
# Sequence (P08684 whole entry): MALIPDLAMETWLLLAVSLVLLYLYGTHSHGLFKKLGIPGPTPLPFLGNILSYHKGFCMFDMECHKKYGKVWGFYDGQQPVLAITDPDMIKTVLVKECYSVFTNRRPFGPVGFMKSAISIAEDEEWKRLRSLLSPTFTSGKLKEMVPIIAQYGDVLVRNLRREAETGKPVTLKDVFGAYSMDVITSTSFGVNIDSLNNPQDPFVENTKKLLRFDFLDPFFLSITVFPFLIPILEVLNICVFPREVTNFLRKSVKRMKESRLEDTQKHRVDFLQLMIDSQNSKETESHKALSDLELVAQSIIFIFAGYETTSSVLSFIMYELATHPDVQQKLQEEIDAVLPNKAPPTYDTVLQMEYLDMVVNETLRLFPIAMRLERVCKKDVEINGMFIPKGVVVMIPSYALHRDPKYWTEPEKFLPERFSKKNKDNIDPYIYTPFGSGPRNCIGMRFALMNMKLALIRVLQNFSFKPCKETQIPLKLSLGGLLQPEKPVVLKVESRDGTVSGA
# Settings: not given
row,SMILES,AC50
1,CC1CCC(C(=O)NC(C(=O)N2CCC(N3CCCCC3)CC2)C(C)C)CC1 (stereo not given),14.1 µM (inconclusive)
2,COc1c(O)ccc2c1CN1CCc3cc4c(cc3[C@@H]1C2)OCO4,5.01 µM (inconclusive)
3,CSc1nc2n(n1)C(c1cc(Br)ccc1F)C(C(=O)N(C)C)=C(C)N2 (stereo not given),14.1 µM (inconclusive)
4,c1cc(CNCCCN2CCOCC2)ccn1,31.6 µM (inconclusive)
